According to paper PMC4979206, “Structural basis of unique ligand specificity of KAI2-like protein from parasitic weed Striga hermonthica” (Scientific Reports, 2016):
Where “and” joins values, the source holds several entries; their conditions need not be identical. Equal entries are not always repeated. Entries after “also recorded” stand apart in the source; their conditions may differ.

Columns and labels:
ShKAI2iB [1] = molecular target: T1, ShKAI2iB (Striga hermonthica, UniProt A0A0M3PN85, C270S); experiment: Intrinsic fluorescence binding assay
T1 sequence (A0A0M3PN85 1-270 C270S): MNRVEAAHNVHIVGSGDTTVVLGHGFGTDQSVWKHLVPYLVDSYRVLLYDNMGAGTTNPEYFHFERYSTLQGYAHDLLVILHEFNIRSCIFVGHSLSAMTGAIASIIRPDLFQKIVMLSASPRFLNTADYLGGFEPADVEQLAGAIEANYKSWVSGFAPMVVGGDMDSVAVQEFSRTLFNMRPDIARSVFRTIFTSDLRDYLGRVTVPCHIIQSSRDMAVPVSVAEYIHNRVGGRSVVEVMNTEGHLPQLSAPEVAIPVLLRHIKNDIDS
Procedure: The coding sequence cDNA of ShKAI2iB was amplified by PCR using total complementary DNA from the total RNA of 1-day conditioned Striga seeds. ShKAI2iB (1–270, C270S) was designed for crystallization and other assays. For expression in Escherichia coli, the PCR product was cloned into an expression vector pGEX-6P-3 (GE Healthcare) and subsequently transformed into E. coli strain Rosetta (DE3) (Novagen). IPTG-induced overexpression was performed for 20 h at 25 °C. […] Purified ShKAI2iB was dialyzed against buffer B (20 mM HEPES-NaOH, pH 8.0, 50 mM NaCl) for the ITC experiments and the intrinsic fluorescence assay.
KD values were also determined by using intrinsic fluorescence assays. Fluorescence measurements were conducted as previously described[16] with minor modifications. […] Flat-bottomed, black 96 well plates were used to read fluorescence intensity using a Tecan Infinite M1000 monochromator. Measurements were taken at room temperature under a 285 nm excitation wavelength, a 333 nm emission wavelength, 50 flashes, and a 400 Hz flash frequency with a gain of 70 and a 2 μs integration time. ΔF (rfu, relative fluorescence units) was calculated by subtracting the fluorescence of the DMSO control. […]

ShKAI2iB [2] = molecular target: T1, ShKAI2iB; experiment: ITC binding to ShKAI2iB (wild type)
Procedure: (§1) The coding sequence cDNA of ShKAI2iB was amplified by PCR using total complementary DNA from the total RNA of 1-day conditioned Striga seeds. ShKAI2iB (1–270, C270S) was designed for crystallization and other assays. For expression in Escherichia coli, the PCR product was cloned into an expression vector pGEX-6P-3 (GE Healthcare) and subsequently transformed into E. coli strain Rosetta (DE3) (Novagen). IPTG-induced overexpression was performed for 20 h at 25 °C. For purification, cell pellets were lysed by sonication in buffer A (20 mM Tris-HCl, pH 8.0, 0.3 M NaCl, 1 mM DTT), and the soluble fraction separated by centrifugation was purified using Glutathione Sepharose 4B resin (GE Healthcare) and a Resource Q anion-exchange column (GE Healthcare). ShKAI2iB mutants were overexpressed and purified with the same procedure as wild-type protein. For crystallization, buffer exchange accompanied by concentration was performed using Vivaspin 20 (5,000 MWCO PES) (Sartorius). Purified ShKAI2iB was dialyzed against buffer B (20 mM HEPES-NaOH, pH 8.0, 50 mM NaCl) for the ITC experiments and the intrinsic fluorescence assay.
(§2) Binding assays of ShKAI2iB and KAR1 were performed using a MicroCal iTC200 isothermal titration calorimeter (GE Healthcare). Prior to the ITC experiments, concentrated ShKAI2iB was dialyzed against a buffer consisting of 20 mM HEPES-NaOH, pH 8.0, and 50 mM NaCl to remove dithiothreitol and then adjusted to a final concentration of 150 μM. The sample cell was filled with ShKAI2iB solution (204 μl). […] of 3 mM KAR1 or 3 mM rac-GR24 (equimolar mixture of two enantiomers: GR24^5DS and GR24^ent-5DS) was injected into the prepared protein solution by 20 consecutive 2.0 μl aliquots at 150 s intervals at 10 °C. The first injection volume was 0.4 μl, and the observed thermal peak was excluded from the data analyses. Duplicate experiments were performed independently. A negative control was made by titrating 3 mM KAR1 into a buffer (20 mM HEPES, pH 8.0, 50 mM NaCl) in the same manner. Data fitting was performed using Origin software in the “one set of sites” mode. The dissociation constant (KD) values were calculated from duplicate thermograms (mean ± S.D.).

KAI2 [3] = system: KAI2; design: method as in PMID 25126711; settings: cited from earlier work
ShKAI2iB [4] = molecular target: T1, ShKAI2iB; experiment: Enzymatic degradation (hydrolysis) assay of rac-GR24 with HPLC; format: biochemical; settings: 10 μM rac-GR24, 6 μg ml^−1 protein, 3 h, 37 °C
Procedure: The enzymatic degradation assay of rac-GR24 was performed in a total volume of 1 ml of PBS buffer containing 10 μM rac-GR24. Purified OsD14[23] and ShKAI2iB were added at a final concentration of 6 μg ml^−1 and incubated for 3 h at 37 °C. Then 100 mg of NaCl and 100 μl of 0.1 M HCl were added to each reaction solution, and the reaction solutions were extracted with 400 μl of ethyl acetate three times. The ethyl acetate layers were combined and dried in vacuo and dissolved in 50 μl of methanol. For each layer, 10 μl was applied to the HPLC analyses. The reverse-phase chromatographic separation was performed on a Jasco HPLC system that was equipped with an HPLC pump of model PU 2080 (Jasco) and a photodiode array detector MD1510 (Jasco). The system was controlled by the ChromNAV (Ver. 1.18.07) software program (Jasco). The analytical column was a CAPCELL CORE C18 (Φ 4.6 × 100 mm, Shiseido). The analytes were eluted under gradient conditions using methanol ramped linearly to 90% methanol at 9 min and held for 4.5 min before resetting to the original conditions. The contents of rac-GR24 was calculated by the peak area at the retention time 6.2 min with the regression equation obtained from the calibration curve produced using a dilution series of rac-GR24 solution. […] Statistical differences between the groups were calculated with ANOVA analysis followed by Tukey–Kramer test.

KAI2 [5] = system: KAI2; design: method as in PMID 25126711; settings: cited from earlier work; remark: listed apart in the source
ShKAI2iB L142A = ShKAI2iB L142A (Striga hermonthica, UniProt A0A0M3PN85, C270S/L142A); experiment: ITC binding to ShKAI2iB L142A mutant
Sequence of ShKAI2iB L142A (A0A0M3PN85 1-270 L142A/C270S): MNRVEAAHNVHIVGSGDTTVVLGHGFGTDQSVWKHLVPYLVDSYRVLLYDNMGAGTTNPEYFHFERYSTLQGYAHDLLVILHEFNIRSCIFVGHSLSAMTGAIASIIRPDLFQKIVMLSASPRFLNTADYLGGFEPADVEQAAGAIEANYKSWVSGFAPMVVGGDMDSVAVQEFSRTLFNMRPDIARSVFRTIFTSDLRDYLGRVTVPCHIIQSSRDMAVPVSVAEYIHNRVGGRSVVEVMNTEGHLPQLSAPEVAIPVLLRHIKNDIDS
Procedure: as §1, §2
(§3) Supplementary Figure 4. Results of ITC experiments between ShKAI2iB mutants and KAR1. ITC experiments were performed b y titrating KAR1 into ShKA I2iB mutants (a, F194A; b, S95A; c, L142A; d, F190L; e, V139 L) or into buffer as a negat ive control (f). The upper panel illustrates raw ITC data. The bottom panel represents data of the enthalpy cha nge deri ved fr om the upper panel. Corres ponding […]
(§4) (1 picture or pasted object on this page, not shown here)

ShKAI2iB S95A = experiment: ITC binding to ShKAI2iB S95A mutant; design: species or system Striga hermonthica
Procedure: as §1
Binding assays of ShKAI2iB and KAR1 were performed using a MicroCal iTC200 isothermal titration calorimeter (GE Healthcare). […] The dissociation constant (KD) values were calculated from duplicate thermograms (mean ± S.D.). […]

ShKAI2iB F190L = ShKAI2iB F190L (Striga hermonthica, UniProt A0A0M3PN85, C270S/F190L); experiment: ITC binding to ShKAI2iB F190L mutant
Sequence of ShKAI2iB F190L (A0A0M3PN85 1-270 F190L/C270S): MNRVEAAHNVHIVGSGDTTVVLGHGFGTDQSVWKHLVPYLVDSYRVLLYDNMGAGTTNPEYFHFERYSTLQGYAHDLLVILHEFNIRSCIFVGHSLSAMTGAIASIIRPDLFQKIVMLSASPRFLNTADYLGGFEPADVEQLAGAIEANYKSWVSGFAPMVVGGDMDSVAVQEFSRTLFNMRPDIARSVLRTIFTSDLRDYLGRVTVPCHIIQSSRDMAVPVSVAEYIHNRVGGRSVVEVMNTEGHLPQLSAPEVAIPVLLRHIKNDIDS
Procedure: as §1
(§5) Binding assays of ShKAI2iB and KAR1 were performed using a MicroCal iTC200 isothermal titration calorimeter (GE Healthcare). Prior to the ITC experiments, concentrated ShKAI2iB was dialyzed against a buffer consisting of 20 mM HEPES-NaOH, pH 8.0, and 50 mM NaCl to remove dithiothreitol and then adjusted to a final concentration of 150 μM. The sample cell was filled with ShKAI2iB solution (204 μl). Two microliters of 3 mM KAR1 or 3 mM rac-GR24 (equimolar mixture of two enantiomers: GR24^5DS and GR24^ent-5DS) was injected into the prepared protein solution by 20 consecutive 2.0 μl aliquots at 150 s intervals at 10 °C. The first injection volume was 0.4 μl, and the observed thermal peak was excluded from the data analyses. Duplicate experiments were performed independently. […] The dissociation constant (KD) values were calculated from duplicate thermograms (mean ± S.D.). […]

ShKAI2iB V139L = ShKAI2iB V139L (Striga hermonthica, UniProt A0A0M3PN85, C270S/V139L); experiment: ITC binding to ShKAI2iB V139L mutant
Sequence of ShKAI2iB V139L (A0A0M3PN85 1-270 V139L/C270S): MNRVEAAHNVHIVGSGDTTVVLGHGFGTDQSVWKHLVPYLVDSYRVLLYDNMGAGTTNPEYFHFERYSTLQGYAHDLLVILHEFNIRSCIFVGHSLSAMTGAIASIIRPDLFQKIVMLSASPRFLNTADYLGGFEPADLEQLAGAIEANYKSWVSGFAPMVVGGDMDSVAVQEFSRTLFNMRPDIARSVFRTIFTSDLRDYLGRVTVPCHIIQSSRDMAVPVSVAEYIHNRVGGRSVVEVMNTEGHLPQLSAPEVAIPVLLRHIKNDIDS
Procedure: as §1, §5

ShKAI2iB F194A = ShKAI2iB F194A (Striga hermonthica, UniProt A0A0M3PN85, C270S/F194A); experiment: ITC binding to ShKAI2iB F194A mutant
Sequence of ShKAI2iB F194A (A0A0M3PN85 1-270 F194A/C270S): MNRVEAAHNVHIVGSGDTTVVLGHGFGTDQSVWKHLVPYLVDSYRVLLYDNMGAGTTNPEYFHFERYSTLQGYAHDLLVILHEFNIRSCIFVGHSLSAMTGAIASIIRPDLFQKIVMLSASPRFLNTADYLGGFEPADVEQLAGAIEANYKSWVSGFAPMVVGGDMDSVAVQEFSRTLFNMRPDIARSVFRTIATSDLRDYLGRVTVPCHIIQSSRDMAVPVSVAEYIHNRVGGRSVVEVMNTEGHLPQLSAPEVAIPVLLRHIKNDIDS
Procedure: as §1, §2, §3, §4

S. hermonthica = system: S. hermonthica; design: method as in PMID 26228149; settings: cited from earlier work

CC1=CC(OC=C2C(=O)OC3c4ccccc4CC23)OC1=O (racemic) [rac-GR24]
fluorescence change (binding) (ShKAI2iB [1]; wild-type ShKAI2iB): no detectable heat change or fluorescence change | heat change in ITC (binding) (ShKAI2iB [2]; wild-type ShKAI2iB, 3 mM ligand titrated): no detectable heat change | hydrolysis by KAI2 (KAI2 [3]): exhibits hydrolytic activity | hydrolysis by ShKAI2iB (ShKAI2iB [4]): not capable of hydrolyzing | hydrolysis by ShKAI2iB (ShKAI2iB [4]; listed as GR24): unable to bind and hydrolyze | binding to KAI2 (KAI2 [5]): able to bind

Cc1c2ccocc-2oc1=O [KAR1, 3-methyl-2H-furo [2,3-c] pyran-2-one]
Kd (ShKAI2iB [1]): 70 ± 3.4 µM | Kd (ShKAI2iB [2]): 77.6 ± 3.4 µM | N (number of sites) (ShKAI2iB [2]; wild-type ShKAI2iB, ITC): 0.91 ± 0.05 | ΔG (ShKAI2iB [2]; wild-type ShKAI2iB, ITC): –5.35 kcal/mol | ΔS (entropy change) (ShKAI2iB [2]; wild-type ShKAI2iB, ITC, 10 °C): –3.99 cal mol^–1 deg^–1 | Kd (ShKAI2iB L142A): 196 ± 24 µM | ΔG (ShKAI2iB L142A; L142A mutant): –4.76 kcal/mol | ΔH (ShKAI2iB L142A; L142A mutant): –7.00 ± 0.70 kcal mol^–1 | ΔS (ShKAI2iB L142A; L142A mutant): –7.90 cal mol^–1 deg^–1 | heat change in ITC (binding) (ShKAI2iB S95A): almost no heat change; also recorded: abolishes binding | ΔG (ShKAI2iB F190L): –4.75 kcal/mol | ΔH (ShKAI2iB F190L): –11.71 ± 8.89 kcal mol^–1 | ΔS (ShKAI2iB F190L): –24.6 cal mol^–1 deg^–1 | binding to KAI2 (KAI2 [5]): able to bind | ΔH (ShKAI2iB V139L): –12.87 ± 0.03 kcal mol^–1 | ΔS (ShKAI2iB V139L): –24.8 cal mol^–1 deg^–1 | Kd (ShKAI2iB V139L; KD, ITC): 35.6 µM and 36 µM | Kd (ShKAI2iB F194A): 107 ± 10 µM | change of ITC result versus wild type (ShKAI2iB F194A; F194A mutant): no significant change | ΔG (ShKAI2iB F194A; F194A mutant): –5.11 kcal/mol | ΔH (ShKAI2iB F194A; F194A mutant): –13.24 ± 63.94 kcal mol^–1 | ΔS (ShKAI2iB F194A; F194A mutant): –28.7 cal mol^–1 deg^–1 | induction of germination of S. hermonthica (S. hermonthica): failed to induce germination
